15 compounds from patent US5719303A, “Phosphonic acid derivatives” (Eisai Co., Ltd., priority 1993, dated 1998) can be followed below.

In this experiment the target is T1, squalene synthetase (Rattus norvegicus, UniProt Q02769).
T1 construct: 50 μl of a 1 mg/ml rat liver microsome; from tissue; host or cells: liver microsomes of Sprague-Dawley rats fed 2% cholestyramine; 105000 g fraction
T1 sequence (Q02769 1-416): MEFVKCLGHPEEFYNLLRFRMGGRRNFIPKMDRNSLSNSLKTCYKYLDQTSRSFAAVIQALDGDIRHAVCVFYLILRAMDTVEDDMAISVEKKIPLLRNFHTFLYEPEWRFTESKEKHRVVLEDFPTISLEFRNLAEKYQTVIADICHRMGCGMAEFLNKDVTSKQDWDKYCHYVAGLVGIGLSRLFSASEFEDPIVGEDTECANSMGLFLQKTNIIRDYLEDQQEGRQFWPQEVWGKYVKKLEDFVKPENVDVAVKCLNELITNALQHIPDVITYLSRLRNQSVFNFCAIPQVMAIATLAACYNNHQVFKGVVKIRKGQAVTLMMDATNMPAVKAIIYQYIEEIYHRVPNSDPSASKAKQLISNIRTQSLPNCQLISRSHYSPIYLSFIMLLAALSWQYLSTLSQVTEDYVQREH
The experiment in a line: Inhibitory activity against squalene synthetase (3H-FPP to squalene, rat liver microsome). It counts as biochemical. Conditions: 3H-FPP substrate, 37° C., 10 minutes, pH 7.4. On the procedure:
50 μl of 500 mM Tris-HCl (pH: 7.4), 50 μl of 10 mM magnesium chloride, 50 μl of 2 mM potassium fluoride, 50 μl of 10 mM nicotinamide adenine dinucleotide phosphate (hereinafter abbreviated to "NADPH"), 100 μl of a sample solution of five-fold concentration, 100 μl of distilled water and 50 μl of a 1 mg/ml rat liver microsome were put in a centrifuge tube, with the liver microsome being one prepared by the method which will be described below.
The above mixture was preincubated at 37° C. for 5 minutes. 50 μl of 100 μM 3H-FPP (10 mCi/mmol, NEN) was added to the resulting mixture to initiate a reaction. After 10 minutes, 1 ml of 4N sodium hydroxide was added to the mixture to stop the reaction, followed by the addition of 1 ml of ethanol. The obtained mixture was incubated at 80° C. for 12 hours, cooled with ice and extracted with petroleum ether twice. The petroleum ether phases were separated from the aqueous phase and evaporated to dryness with nitrogen gas. The residue was dissolved in 25 μl of chloroform containing squalene, farnesol and cholesterol as markers. The obtained solution was applied to TLC (Empore: 412001-1) and developed with benzene/isopropyl ether (1:1) for 6 minutes and with heptane for 15 minutes.
The band of squalene was cut from the plate and examined for radioactivity with a liquid scintillation counter to determine the inhibitory ratio.
The rate liver microsome used in the above experiment was prepared as follows.
A Sqraque-Dawley rat was fed with a feed containing 2% of cholestyramine (Dowex 1-X2) for at least 5 days to enhance the cholesterol biosynthesis activity. At midnight (0:00), the liver was extirpated from the rat. A 1.15 (w/v) % potassium chloride solution was circulated in the blood vessel of the liver extirpated under cooling with ice to remove the blood. The resulting liver was cut into small pieces with scissors, homogenized with a Teflon homogenizer of loose fitting type and subjected to centrifugation (700 g, 10 minutes). The obtained supernatant was further subjected to centrifugation (15000 g, 20 minutes) and the obtained supernatant was subjected to centrifugation (105000 g, 60 minutes) to be separated into a microsome fraction and a supernatant. This microsome fraction was washed with a 0.1M potassium phosphate buffer (pH: 7.4) once, and suspended in the same buffer in a liver concentration of 3 g/ml. The obtained suspension was examined for protein content by the Lowry method and the protein content of the suspension was adjusted to 20 mg/ml.

Compound `C/C(=C\CN(C)CC(O)CC(C(=O)O)P(=O)(O)O)CCc1ccc2ccccc2c1` (mixture of isomers) [Example 19, Trisodium 1-carboxy-4-[N-methyl-3-methyl-5-(2-naphthyl)-2-pentenylamino]-3-hydroxybutylphosphonate (diastereomeric mixture)] returned an IC50 of 170 nM.

The compound `CC(O)c1ccc(Cc2ccc(CN(C)CCCC(P(=O)(O)O)P(=O)(O)O)cc2)cc1` (stereo not drawn) [Example 14, Tetrasodium 4[N-methyl-4-[4-(1-hydroxyethyl)benzyl]benzylamino]butylidene-1-diphosphonate] returned an IC50 of 2.4 nM.

`CC(C)=CCC/C(C)=C/CN(C)C(=O)OCCCC(P(=O)(O)O)P(=O)(O)O` [Example 15, Tetrasodium 4-[(E)-N-(3,7-dimethylocta-2,6-dienyl)-N-methylcarbamoyloxybutylidene-1,1-diphosphonate] came in with an IC50 of 0.81 nM.

`COc1ccc(C(=O)C2CCN(CCCC(P(=O)(O)O)P(=O)(O)O)CC2)cc1` [Example 16, 4-[4(4-Methoxybenzoyl)piperidino]butylidene-1,1-diphosphonic acid] yielded an IC50 of 0.28 nM. Compared with the last compound, the IC50 is about 2.9-fold lower.

In the case of `CN(CCCC(P(=O)(O)O)P(=O)(O)O)Cc1ccc(-c2ccccc2)cc1` [Example 32], inhibition was half-maximal at 1.4 nM (IC50).

Regarding `CN(CCCC(P(=O)(O)O)P(=O)(O)O)Cc1ccc(-c2cccnc2)s1` [Example 41], the IC50 came to 5 nM. This IC50 lies about 3.6-fold higher than the previous one.

For `CC(O)c1ccc(-c2ccc(CN(C)CCCC(P(=O)(O)O)P(=O)(O)O)s2)cc1` (stereo not drawn) [Example 42], the IC50 is 1.8 nM. Against the preceding compound, the IC50 is about 2.8-fold lower.

Take `COc1ccccc1C(C)=CCN(C)CCCC(P(=O)(O)O)P(=O)(O)O` [Example 114]: half-maximal inhibition (IC50) required 2.4 nM.

In the case of `CN(CCCC(P(=O)(O)O)P(=O)(O)O)Cc1ccc(C(=O)c2ccccc2)c(O)c1` [Example 201], it took 0.91 nM to reach half-maximal inhibition (IC50).

The compound `O=P(O)(O)C(CC1CCN(Cc2cccc(/C=C/c3ccccc3)c2)CC1)P(=O)(O)O` [Example 209] returned an IC50 of 1.3 nM.

With `Cc1c(-c2ccccc2)ncn1CCCNC(P(=O)(O)O)P(=O)(O)O` [Example 210], the IC50 was 4 nM.

The compound `C/C(=C\CC(P(=O)(O)O)P(=O)(O)O)CCc1ccc2ccccc2c1` [Example 223] yielded an IC50 of 1 nM.

`CC(C)=CCC/C(C)=C/CC/C(C)=C/c1cccc(C(P(=O)(O)O)P(=O)(O)O)c1` [Example 230]: the IC50 was 3 nM.

Take `CC(=O)c1cccc(/C(C)=C/CN(C)CCCC(P(=O)(O)O)P(=O)(O)O)c1` [Example 238]: it took 0.54 nM to reach half-maximal inhibition (IC50).

The compound `CC(=O)c1ccc(Cc2ccc(CN(C)CCCC(P(=O)(O)O)P(=O)(O)O)cc2)cc1` [Example 246] came in with an IC50 of 3.1 nM.
